Measurements published in article PMC11272085, “Steroid Drugs Inhibit Bacterial Respiratory Oxidases and Are Lethal Toward Methicillin-Resistant Staphylococcus aureus” (The Journal of Infectious Diseases, 2024).
Values after ≈ are worked out from the molar mass of the structure shown. Values joined by “and” are separate entries in the source; they are usually repeats but may differ in a detail not shown here. Equal entries are not always repeated. “Also recorded” adds a separate entry of the source. Where two headings read alike, the source gives them in different places. No end group written: not given here.

Assays:
E. coli cytochrome bd-I [1] = target: T1, E. coli cytochrome bd-I (Escherichia coli, UniProt P0ABJ9); assay: Oxygen consumption assay (oxygen electrode), E. coli EC958 bd-I-only membranes; conditions: for Inhibition of oxygen consumption / Effect on oxygen consumption (in words): 100 µM drug; for Inhibition of oxygen consumption / IC50: 8 mM succinate; for Inhibition of oxygen consumption: 500 µg/mL membranes; for IC50: IC50 oxygen consumption; for IC50 / Effect on oxygen consumption (in words): E. coli bd-I-only membranes
T1 sequence (P0ABK2 whole entry, one chain of several): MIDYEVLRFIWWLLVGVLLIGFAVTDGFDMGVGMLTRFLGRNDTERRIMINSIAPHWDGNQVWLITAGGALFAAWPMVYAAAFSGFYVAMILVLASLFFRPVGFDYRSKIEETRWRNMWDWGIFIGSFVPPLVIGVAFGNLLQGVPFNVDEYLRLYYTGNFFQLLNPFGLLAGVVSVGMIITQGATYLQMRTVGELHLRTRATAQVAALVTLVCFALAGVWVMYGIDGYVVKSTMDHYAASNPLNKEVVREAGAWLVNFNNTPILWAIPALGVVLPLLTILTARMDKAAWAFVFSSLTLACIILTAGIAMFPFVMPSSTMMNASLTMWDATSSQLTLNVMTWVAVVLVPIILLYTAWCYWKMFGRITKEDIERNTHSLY
T1 sequence (A5A618 whole entry, one chain of several, further chain): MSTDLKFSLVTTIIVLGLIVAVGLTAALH
T1 sequence (P56100 whole entry, one chain of several, further chain): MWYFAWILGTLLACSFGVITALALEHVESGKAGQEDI

[2] = test system: Mycobacterium smegmatis bd-only strain; parameters: method as in PMID 31939065; conditions: ATP assays, M. smegmatis bd-only strain ref 40; cited from earlier work
succinate dehydrogenase = target: T2, succinate dehydrogenase (Escherichia coli, UniProt P07014+P0AC41+P0AC44+P69054); assay: Succinate dehydrogenase assay, E. coli bd-I-only membranes; type: biochemical
T2 construct: endogenous in cells; host or cells: E. coli EC958 bd-I-only mutant (ΔcyoA appCB::Cm), isolated cell membranes
Method: The method used for the succinate dehydrogenase assay is an adaptation of Kolaj-Robin et al. 2011 [6]. A 1 mL mixture was prepared with a final concentration of 400 μM phenazine methosulfate (PMS), 8 mM succinate, 50 mM Tris-HCL (pH 8.5) buffer, 0.02 % n-dodecyl-β-D-maltoside, 2.5% drug, 500 µg/mL of bacteria membranes and 50 μM of dichlorophenolindophenol (added last). The phenazine methosulfate, succinate and membranes were first preincubated for 30 min at 37 °C before being added to the remaining mixture. To start the reaction, 50 μM of dichlorophenolindophenol was added that produced a starting OD600 that ranged from 0.8 to 1. Spectrakinetics were recorded on a Cary 60 spectrophotometer for 15 min.
Supplementary Figure S3. Succinate dehydrogenase (SDH) E. coli membrane assay with quinestrol. The activity of SDH was expressed as a percentage of the DMSO only control. Data represent the means of three repeats and error bars represent the standard deviation.

E. coli bd-I-only cells = assay: Viability assay, E. coli bd-I-only; type: cell-based, Escherichia coli; conditions: data not shown
[3] = test system: vancomycin-resistant Enterococcus faecium; parameters: method as in PMID 28190396; conditions: previous screen ref 31; cited from earlier work
MRSA = test system: MRSA; parameters: method as in PMID 28190396; conditions: previous screen ref 31; cited from earlier work
gram-negative species = test system: gram-negative species; parameters: method as in PMID 28190396; conditions: previous screen ref 31; cited from earlier work
E. coli WT cells = assay: Viability assay, E. coli WT; conditions: 3 hours exposure
Method: (§1) Viability assays were performed essentially as described by Webster et al [22]. In brief, E. coli EC958 was grown overnight in 10 mL LB medium and was used to inoculate M9 medium. MRSA cells were grown in TSB medium throughout. Twenty microliters of each drug was added to the wells of row A of a 96-well plate followed by 180 µL of cells (OD600 of 0.1). Cells were exposed to drug for 3 hours at 37°C. Following drug exposure, serial dilutions were performed in 1× phosphate-buffered saline (pH 7.4) before being spotted onto LB agar plates overnight to determine changes in cell growth. Six repeats were performed for each concentration of drug, which included 2 biological repeats and 3 technical repeats of each.

MRSA USA300 WT = assay: Growth assay, MRSA USA300 WT
Method: (§2) Starter cultures were grown in 10 mL Luria–Bertani (LB) (E. coli) or 10 mL Tryptic Soy Broth (TSB) medium (MRSA) in sterile 50 mL conical flasks at 180 rpm and 37°C, until stationary phase was reached, and were used to inoculate 50 mL of fresh growth medium in 250 mL conical flasks. M9 minimal medium was used for E. coli (16 g/L Na2HPO4.2H2O, 3 g/L KH2PO4, 0.5 g/L NaCl, 1 g/L NH4Cl, 0.24 g/L MgSO4, 0.01 g/L CaCl2, 0.1% casamino acids, and 2% glycerol), and TSB medium was used for MRSA. […] Greiner F-bottom sterile 96-well plates were prepared by adding 100 µL of a 2× concentrated growth medium, 61.7 µL sterile milliQ H2O, 5 µL of the drug, and 33.3 µL of cell culture (final optical density at 600 nm [OD600] of ∼ 0.1). Cells were grown in a FLUOstar Omega plate reader at double orbital pattern setting with readings being taken 300 seconds apart.

E. coli EC958 WT = assay: Growth assay, E. coli EC958 WT; conditions: Escherichia coli, EC958WT, read-out: IC50 growth
Method: as §2

E. coli bo′-only cells = assay: Viability assay, E. coli bo′-only; conditions: data not shown
MRSA WT cells = assay: microbe, parasite or virus in culture; conditions: Staphylococcus aureus, 3 h, read-out: LC50 (median lethal concentration)
Method: as §1

MRSA bd-only cells = assay: microbe, parasite or virus in culture; conditions: Staphylococcus aureus, 3 h, read-out: LC50 (median lethal concentration)
Method: as §1

MRSA aa3-only cells = assay: microbe, parasite or virus in culture; conditions: Staphylococcus aureus, 3 h, read-out: LC50 (median lethal concentration)
Method: as §1

MRSA bd-only strain = assay: Growth assay, MRSA USA300 bd-only strain; conditions: Staphylococcus aureus, read-out: IC50 growth
Text: (§3) The methicillin-resistant Staphylococcus aureus (MRSA) strain used is the well-characterized USA300 LAC isolate [27], a community-associated MRSA strain isolated from the Los Angeles County Jail. All MRSA mutant strains were generated by phage transduction of the relevant transposon mutant from the Nebraska Transposon Mutant Library [28] into strain USA300 LAC using methods described previously [29], generating clean insertions in the loci of interest and conferring erythromycin resistance. For the purposes of this article, the MRSA qoxA::Tn strain will be referred to as “bd-only” while the cydA::Tn strain will be referred to as “aa3-only.”
(§4) Starter cultures were grown in 10 mL Luria–Bertani (LB) (E. coli) or 10 mL Tryptic Soy Broth (TSB) medium (MRSA) in sterile 50 mL conical flasks at 180 rpm and 37°C, until stationary phase was reached, and were used to inoculate 50 mL of fresh growth medium in 250 mL conical flasks. M9 minimal medium was used for E. coli (16 g/L Na2HPO4.2H2O, 3 g/L KH2PO4, 0.5 g/L NaCl, 1 g/L NH4Cl, 0.24 g/L MgSO4, 0.01 g/L CaCl2, 0.1% casamino acids, and 2% glycerol), and TSB medium was used for MRSA. […] Cells were grown in a FLUOstar Omega plate reader at double orbital pattern setting with readings being taken 300 seconds apart.

MRSA aa3-only strain = assay: Growth assay, MRSA USA300 aa3-only strain; conditions: Staphylococcus aureus, read-out: IC50 growth
Text: as §3, §4

E. coli bo′-only strain = assay: Growth assay, E. coli EC958 bo′-only strain; conditions: Escherichia coli, read-out: IC50 growth
Text: as §3, §4

E. coli bd-I-only strain = assay: Growth assay, E. coli EC958 bd-I-only strain; conditions: Escherichia coli, read-out: IC50 growth
Text: as §3, §4

MRSA cytochrome bd = MRSA cytochrome bd (Staphylococcus aureus, UniProt A0A0H2XF42); assay: Oxygen consumption assay, MRSA bd-only membranes; conditions: read-out: IC50 oxygen consumption; MRSA bd-only membranes 1 mg/mL, 500 µM NADH
E. coli cytochrome bd-I [4] = target: T3, E. coli cytochrome bd-I (Escherichia coli, UniProt P0ABJ9); conditions: peptides that bind to E. coli cytochrome bd-I ref 33, 34, 35; cited from earlier work
T3 construct: endogenous in cells; host or cells: E. coli EC958 (O25:H4-ST131) bd-I-only mutant (ΔcyoA appCB::Cm), isolated cell membranes
T3 sequence (P0ABJ9 whole entry, looked up): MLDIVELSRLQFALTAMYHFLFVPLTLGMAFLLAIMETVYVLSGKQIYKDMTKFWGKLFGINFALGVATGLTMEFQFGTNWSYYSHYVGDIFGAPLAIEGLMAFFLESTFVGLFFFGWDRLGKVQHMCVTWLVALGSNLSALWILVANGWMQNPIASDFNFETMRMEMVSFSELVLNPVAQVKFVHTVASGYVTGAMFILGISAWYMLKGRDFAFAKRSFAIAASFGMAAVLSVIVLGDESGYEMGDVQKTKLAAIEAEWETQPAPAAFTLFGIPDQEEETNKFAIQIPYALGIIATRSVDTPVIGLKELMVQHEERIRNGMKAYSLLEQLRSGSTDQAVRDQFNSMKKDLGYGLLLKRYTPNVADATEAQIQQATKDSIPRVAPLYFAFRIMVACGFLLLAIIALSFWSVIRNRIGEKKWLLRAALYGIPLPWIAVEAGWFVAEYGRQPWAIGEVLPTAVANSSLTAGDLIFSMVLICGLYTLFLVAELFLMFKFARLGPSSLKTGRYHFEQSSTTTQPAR

E. coli cytochrome bd-I [5] = target: T1, E. coli cytochrome bd-I; parameters: endogenous in cells; host or cells: E. coli EC958 (O25:H4-ST131) bd-I-only mutant (ΔcyoA appCB::Cm), isolated cell membranes; conditions: peptides that bind to E. coli cytochrome bd-I ref 33, 34, 35; cited from earlier work

MRSA cytochrome bd, sequence (A0A0H2XF42 entry or part of it): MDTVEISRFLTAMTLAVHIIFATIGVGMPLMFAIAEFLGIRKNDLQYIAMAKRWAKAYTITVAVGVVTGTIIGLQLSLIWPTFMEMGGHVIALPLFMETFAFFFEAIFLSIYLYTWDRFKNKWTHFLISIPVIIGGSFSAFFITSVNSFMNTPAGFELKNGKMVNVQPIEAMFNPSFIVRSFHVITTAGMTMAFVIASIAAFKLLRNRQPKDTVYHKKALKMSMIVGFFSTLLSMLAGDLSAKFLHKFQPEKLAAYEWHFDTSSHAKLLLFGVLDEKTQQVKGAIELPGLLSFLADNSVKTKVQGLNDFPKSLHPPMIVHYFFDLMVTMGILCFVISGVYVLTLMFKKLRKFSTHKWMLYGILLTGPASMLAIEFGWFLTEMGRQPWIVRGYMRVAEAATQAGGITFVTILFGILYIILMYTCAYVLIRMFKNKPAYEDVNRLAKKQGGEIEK
MRSA cytochrome bd, sequence (A0A0H2XJA4 entry or part of it, further chain): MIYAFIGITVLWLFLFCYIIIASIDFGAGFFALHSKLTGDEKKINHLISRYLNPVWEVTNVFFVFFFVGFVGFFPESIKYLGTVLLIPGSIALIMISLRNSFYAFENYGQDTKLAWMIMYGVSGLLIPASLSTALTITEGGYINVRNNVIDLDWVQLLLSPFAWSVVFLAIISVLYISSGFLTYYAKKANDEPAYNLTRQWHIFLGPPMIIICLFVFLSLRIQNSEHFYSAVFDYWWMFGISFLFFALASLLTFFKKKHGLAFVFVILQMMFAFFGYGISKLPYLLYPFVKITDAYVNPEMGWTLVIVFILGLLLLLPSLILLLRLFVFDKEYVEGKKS
T2 sequence (P0AC44 whole entry): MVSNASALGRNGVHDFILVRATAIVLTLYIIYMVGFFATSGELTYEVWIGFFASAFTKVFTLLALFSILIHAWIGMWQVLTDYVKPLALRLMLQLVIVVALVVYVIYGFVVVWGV
T2 sequence (P07014 whole entry): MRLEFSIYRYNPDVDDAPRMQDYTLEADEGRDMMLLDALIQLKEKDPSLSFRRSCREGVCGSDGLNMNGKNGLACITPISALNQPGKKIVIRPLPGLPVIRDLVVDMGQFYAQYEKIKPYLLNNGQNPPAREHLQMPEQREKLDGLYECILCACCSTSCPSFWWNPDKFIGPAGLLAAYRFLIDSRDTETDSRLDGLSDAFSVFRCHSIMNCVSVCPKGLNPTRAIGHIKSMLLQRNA
T2 sequence (P0AC41 whole entry): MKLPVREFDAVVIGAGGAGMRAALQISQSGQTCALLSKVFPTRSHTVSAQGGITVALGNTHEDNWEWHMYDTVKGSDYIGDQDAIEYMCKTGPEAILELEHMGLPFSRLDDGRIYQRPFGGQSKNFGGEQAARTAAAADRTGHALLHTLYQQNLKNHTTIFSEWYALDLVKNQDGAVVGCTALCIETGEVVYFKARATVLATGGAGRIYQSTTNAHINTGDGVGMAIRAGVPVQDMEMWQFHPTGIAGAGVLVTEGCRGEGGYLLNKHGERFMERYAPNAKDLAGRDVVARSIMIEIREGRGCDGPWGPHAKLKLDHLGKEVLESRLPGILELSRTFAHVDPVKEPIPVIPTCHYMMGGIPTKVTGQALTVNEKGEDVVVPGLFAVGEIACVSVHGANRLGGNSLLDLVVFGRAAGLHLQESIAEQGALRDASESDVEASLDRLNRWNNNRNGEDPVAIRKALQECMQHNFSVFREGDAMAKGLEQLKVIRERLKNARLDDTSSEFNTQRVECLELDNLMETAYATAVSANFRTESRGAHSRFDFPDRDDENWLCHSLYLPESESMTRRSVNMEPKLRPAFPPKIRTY
T2 sequence (P69054 whole entry): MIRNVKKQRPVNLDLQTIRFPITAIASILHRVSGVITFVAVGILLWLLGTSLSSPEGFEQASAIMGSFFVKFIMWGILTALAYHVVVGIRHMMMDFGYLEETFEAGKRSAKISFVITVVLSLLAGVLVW

## C#C[C@]1(O)CC[C@H]2[C@@H]3CCc4cc(O)ccc4[C@H]3CC[C@@]21C [Ethinyl estradiol]
E. coli cytochrome bd-I [1]
  Inhibition of oxygen consumption: 2 fold
  IC50: 159 µM and 158 µM

## CCn1c(C(=O)O)c(CNCCc2ccc(Cl)cc2)c2ccccc21 [MQL-H2, 3-[[2-(4-chlorophenyl)ethylamino]methyl]-1-ethyl-indole-2-carboxylic]
[2]
  IC50: 34 µM

## C#C[C@]1(O)CC[C@H]2[C@@H]3CCc4cc(OC)ccc4[C@H]3CC[C@@]21C [Mestranol]
E. coli cytochrome bd-I [1]
  Effect on oxygen consumption (in words): did not diminish oxygen consumption
E. coli cytochrome bd-I [1]; listed as mestranol
  Effect on oxygen consumption (in words): no inhibitory effects

## C#C[C@]1(O)CC[C@H]2[C@@H]3CCc4cc(OC5CCCC5)ccc4[C@H]3CC[C@@]21C [Quinestrol]
Succinate dehydrogenase
  Succinate dehydrogenase activity (in words): does not inhibit succinate dehydrogenase activity
E. coli bd-I-only cells
  Bactericidal activity (in words): no killing effects
[3]
  Growth inhibition (in words): inhibit the growth
MRSA
  Growth inhibition (in words): inhibit the growth
gram-negative species
  Growth inhibition (in words): not gram-negative species
E. coli WT cells
  Bactericidal activity (in words): not lethal
E. coli WT cells; listed as quinestrol
  Bactericidal activity (in words): did not kill; also recorded: completely resistant to killing
MRSA USA300 WT; Staphylococcus aureus, read-out: IC50 growth, MRSA WT, TSB medium
  IC50: 9.8 µg/mL and 27 µM
MRSA USA300 WT; read-out: IC50 growth, MRSA WT, TSB medium
  IC50: 26.9 µM
E. coli EC958 WT
  IC50: 0.1 µg/mL and 300 nM
E. coli bo′-only cells
  Bactericidal activity (in words): no killing effects
MRSA WT cells
  CC50: 3.4 ± 0.7 µg/mL (≈ 9.33 µM)
MRSA bd-only cells
  CC50: 5.6 ± 0.3 µg/mL (≈ 15.4 µM)
MRSA aa3-only cells
  CC50: 24.7 ± 1.6 µM
MRSA bd-only strain
  IC50: 2.2 µg/mL and 6 µM
MRSA aa3-only strain
  IC50: 5.7 µg/mL and 15.6 µM
E. coli bo′-only strain
  IC50: 0.1 µg/mL and 300 nM
E. coli bd-I-only strain
  IC50: 0.06 µg/mL and 200 nM
MRSA cytochrome bd
  IC50: 2.69 µM
E. coli cytochrome bd-I [1]
  Inhibition of oxygen consumption: 4 fold
  IC50: 0.549 µM and 0.5 µM
E. coli cytochrome bd-I [1]; at higher concentrations
  Residual oxygen consumption activity: around 20%

## cathelicidin LL-37
E. coli cytochrome bd-I [4]
  IC50 (in words): µM range

## gramicidin S
E. coli cytochrome bd-I [5]
  IC50 (in words): µM range

## microcin J25 (GGAGHVPEYFVGIGTPISFYG; ends and bridges not checked; UniProt Q9X2V7 38-58, looked up)
E. coli cytochrome bd-I [4]
  IC50 (in words): µM range
